Assay results published in patent US20030232906A1, “Stabilized coating compositions containing isothiazolone” (priority 2002, published 2003).
Like-named read-outs stand apart in the source and are kept apart here.

Format: physicochemical
Details: for retention of 2-n-octyl-3-isothiazolone active ingredient after 14 days: 1% solution in 95% propylene glycol/5% water, pH 10.0-10.1 (NaOH), no metal salt stabilizers
Description: A 2-n-octyl-3-isothiazolone solution (1%) was prepared in 95% propylene glycol/5% water and the pH was adjusted to 10.0-10.1 with NaOH; no metal salt stabilizers were added to the mixture. Samples of this mixture were then stored at ambient temperature (approximately 25° C.) and also in an oven at 40° C. After 14 days, there was no loss of 2-n-octyl-3-isothiazolone active ingredient (100% retention) for samples stored at either 25° C. or 40° C.

For `CCCCCCCCn1sccc1=O` [2-n-octyl-3-isothiazolone, 2-n-Octyl-3-isothiazolone], the “stability at high pH in the absence of amines (in words)” value was “stable”, the “retention of 2-n-octyl-3-isothiazolone active ingredient after 14 days” value (40° C.) was 100% and the “retention of 2-n-octyl-3-isothiazolone active ingredient after 14 days” value (approx. 25° C.) was 100%.
